According to patent US12077495B2 (priority 2018, dated 2024):
Where two headings read alike, the source gives them in different places.

How the values were obtained:
[1] = target: T1, specific GHB sites (high-affinity GHB binding site) (Rattus norvegicus, UniProt P11275); experiment: biochemical
T1 construct: using crude synaptic membranes prepared from rat cortex; from tissue; host or cells: rat cortex, crude synaptic membranes

[2] = target: T1, specific GHB sites (high-affinity GHB binding site); experiment: biochemical; details: pH 6
CAMK2A = target: T2, CAMK2A (Rattus norvegicus, UniProt P11275); experiment: biochemical; assay type: binding; details: whole cell lysates of CAMK2A-transfected HEK293T cells
T2 construct: host or cells: HEK293T
Procedure: Cells were transfected with rat CAMK2A (Origene construct RR201121) or rat CAMK2B (Origene construct RR200520) using PolyFect (Qiagen, West Sussex, UK) according to the manufacturer's protocol. Whole cell homogenates were prepared 48 hr post-transfection by washing the cells with ice-cold 1×PBS and harvesting by scraping. Cells were collected and centrifuged for 10 min at 1000×g. Cell pellets were resuspended in ice-cold 1×PBS and homogenized using 2×1 mm zirkonium beads in a bullet blender for 20 s at max speed (NextAdvance, NY, USA). Homogenates were cleared by centrifugation (10 min, 4° C., 14.000×g). Protein concentration was determined using the Bradford protein assay. 150-200 μg protein was incubated with 5 nM ^3H-A and test compound in 1 ml total volume for 1 hr at 0-4° C. […] Proteins were then precipitated by addition of ice-cold acetone (4× of the assay volume), vortexing and incubation at −20° C. for 1 hr. Proteins were filtrated rapidly through GF/C unifilters (Whatman) and washed. The dried filters were added scintillation liquid and radioactivity measured on a Tricarb 2100 Scintillation counter (Packard).
A) Principle of photoaffinity labelling workflow. […] After introduction of biotin through a Staudinger-Bertozzi ligation to EZ-Link™ Phosphine-PEG3-Biotin (ThermoFisher Scientific), the biotin-labelled proteins were affinity-purified and subjected to LC-MS/MS analysis. […] C)^3H-A binding to cortical membranes from CAMK2A and CAMK2B knock-out mouse brains.
Human/rat CAMK2A expressed in HEK cells was assayed in an in-house established ^3H-A filtration binding assay performed on whole cell lysates of CAMK2A-transfected HEK293T cells.

GABAB receptor = target: T3, GABAB receptor (Rattus norvegicus, UniProt Q9Z0U4); experiment: 3H-GABA binding assay for GABAB, rat cortex membranes
T3 construct: using crude synaptic membranes prepared from rat cortex; from tissue; host or cells: rat cortex, crude synaptic membranes
Procedure: Following incubation by rapid filtration through GF/C unifilters (PerkinElmer, Boston, MA, USA), using a 96-well Packard cell-harvester (PerkinElmer) and three fast washes with ice-cold binding buffer, microscint scintillation fluid (PerkinElmer) was added to the dried filters, and the amount of filter-bound radioactivity was quantified in a Packard TopCount microplate scintillation counter (PerkinElmer). […] The binding reactions were terminated by rapid filtration through GF/C filters (Whatman), soaked in 0.1% polyethylene imine, using a Brandell 48-well harvester and rapid washing with ice-cold binding buffer. […] Data are presented as % specific binding (of control), and IC50 or Ki values calculated by means of non-linear regression curve-fitting and the Cheng-Prusoff equation, respectively.

[3] = tested on: photothrombotic focal ischemia in C57BL/6J mice; experiment: Photothrombotic mouse model of focal ischemia, infarct volume; assay type: in vivo; details: day 7; for infarct size: saline 5.55
Procedure: (§1) All procedures were performed in accordance with the guidelines on the care and use of laboratory animals set out by the University of Otago, Animal Research Committee and the Guide for Care and Use of Laboratory Animals (NIH Publication No. 85-23, 1996). All in vivo studies were approved by the University of Otago Animal Ethics Committee and are reported according to the ARRIVE (Animal Research: Reporting In Vivo Experiments) guidelines. The photochemical cortical lesion model resembles situations of acute brain injury related clinically to stroke and traumatic brain injury (TBI). Focal ischemia was induced by photothrombosis in male C57BL/6J mice (8-10 weeks) weighing ˜23-30 g as previously described (Clarkson et al., 2010). Under anesthesia with isoflurane (2% to 2.5% in O2) mice were placed in a stereotactic apparatus, the skull exposed through a midline incision, cleared of connective tissue and dried. A cold light source (KL1500 LCD, Zeiss, Auckland, New Zealand) attached to a 40× objective providing a 2-mm diameter illumination was positioned 1.5 mm lateral from bregma. Then, 0.2 ml of Rose Bengal (Sigma-Aldrich, Auckland, New Zealand; 10 mg/ml in normal saline) was administered i.p. After 5 min, the brain was illuminated through the exposed intact skull for 15 min, while keeping body temperature at 37.0±0.3° C. degrees using a heating pad (Harvard apparatus, Holliston, MA, USA). The skin was glued and animals left in a cage placed on a heating pad during the wake-up phase. Mice were housed under a 12-hr light/dark cycle with ad libitum access to food and water. Further, the mice were monitored and weighed on a daily basis.
(§2) For in vivo studies, all compounds were dissolved in a mixture of sterile saline and H2O to obtain isotonicity (0.9%) and administered as 10 mg/ml and 10 μl of solution per gram mouse body weight. The injection of compound (i.p.) was performed 30 min, 3, 6 or 12 hrs after induction of the photothrombotic stroke. The vehicle groups received a corresponding volume of saline (0.9%) at the same time points (30 min, 3, 6 or 12 hrs).
For quantification of the infarcted area, animals were perfused with saline and then with 4% paraformaldehyde (PFA) and the brain dissected out and submerged in 4% PFA for post-fixing overnight. Then the brains were moved to 30% sucrose solution and kept at 4° C. until processing. Brains were cut in 30 μm sections, free-floating in anti-freeze media. Sections were mounted, stained for cresyl violet and the infarct volumes determined by measuring every 6th section through the entire infarct as described in Lie et al (2017). All analyses were performed by an observer blinded to the treatment groups. Brains from the pMCAO studies were flash-frozen in CO2 (gas) and processed into six parallel series of sections (30 μm). Separate series were collected on glass slides and used for infarct size analysis or in Eppendorf tubes and used for qPCR. The glass slides were stored at −80° C. until further processing, and then Cresyl-Violet stained and quantified as described for the photothrombotic photochemical method.

[4] = tested on: photothrombotic focal ischemia in C57BL/6J mice; experiment: Photothrombotic model, behavioural assessment (grid-walking and cylinder tasks); assay type: in vivo; details: day 7
Procedure: as §1, §2
Forelimb motor performance was determined using the cylinder and grid-walking tasks as previously described (Clarkson et al., 2010). All animals were tested both in a pre- and post-testing session, 1 week before and 3 days or 7 days after the ischemic insult, respectively. Observers who scored the behaviour were blinded to the treatment groups.

[5] = tested on: wild-type and GABAB receptor knock-out mice; experiment: Temperature recording (hypothermia) in mice; assay type: in vivo; details: 750 mg/kg i.p., 2 hrs
Procedure: Mice were pre-treated with saline injections (0.9% saline) i.p. for 4 days prior to the experiment to minimize stress on the day of the experiment. Experiments were conducted in a quiet room, in which mice were left undisturbed for at least two hrs prior to the experiment. After the i.p. injections, mice were left in their home cages for two hrs, had core body temperature recorded, and were then euthanized. The core body temperature was measured rectally by a thermometer (model DM 852; ELLAB Instruments; Copenhagen, Denmark) via a lubricated thermistor probe (model PRA-22002-A, 2.2 mm diameter; ELLAB Instruments). Mice were held at the base of the tail and measured until a stable temperature measurement was obtained.
By contrast, compound A had no effect on hypothermia in either wild-type or knock-out mice.

[6] = tested on: GABAB(1) receptor knock-out mice; experiment: Glucose metabolism study, 14C-2-deoxyglucose autoradiography; assay type: in vivo; details: 200 mg/kg i.p., after 45 min
[7] = FIG. 1D, read-out: Ki, competition in the 3H-A binding assay
[8] = 50 mg/kg i.p. 3 hrs after injury
[9] = read-out: Ki, inhibition of 3H-B binding

T1 sequence (P11275 whole entry): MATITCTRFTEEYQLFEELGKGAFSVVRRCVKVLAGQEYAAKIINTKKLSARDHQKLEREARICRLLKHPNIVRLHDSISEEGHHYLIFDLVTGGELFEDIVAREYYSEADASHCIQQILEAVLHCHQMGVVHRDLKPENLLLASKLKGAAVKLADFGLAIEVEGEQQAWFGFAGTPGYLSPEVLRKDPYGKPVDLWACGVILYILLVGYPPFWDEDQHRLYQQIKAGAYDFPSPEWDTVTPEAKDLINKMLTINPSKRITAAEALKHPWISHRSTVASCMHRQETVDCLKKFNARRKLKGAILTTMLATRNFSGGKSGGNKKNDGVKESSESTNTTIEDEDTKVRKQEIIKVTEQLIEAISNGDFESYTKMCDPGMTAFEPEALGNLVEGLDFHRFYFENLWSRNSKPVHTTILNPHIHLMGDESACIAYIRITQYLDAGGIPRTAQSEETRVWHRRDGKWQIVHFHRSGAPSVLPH
T3 sequence (Q9Z0U4 17-960 limits assumed): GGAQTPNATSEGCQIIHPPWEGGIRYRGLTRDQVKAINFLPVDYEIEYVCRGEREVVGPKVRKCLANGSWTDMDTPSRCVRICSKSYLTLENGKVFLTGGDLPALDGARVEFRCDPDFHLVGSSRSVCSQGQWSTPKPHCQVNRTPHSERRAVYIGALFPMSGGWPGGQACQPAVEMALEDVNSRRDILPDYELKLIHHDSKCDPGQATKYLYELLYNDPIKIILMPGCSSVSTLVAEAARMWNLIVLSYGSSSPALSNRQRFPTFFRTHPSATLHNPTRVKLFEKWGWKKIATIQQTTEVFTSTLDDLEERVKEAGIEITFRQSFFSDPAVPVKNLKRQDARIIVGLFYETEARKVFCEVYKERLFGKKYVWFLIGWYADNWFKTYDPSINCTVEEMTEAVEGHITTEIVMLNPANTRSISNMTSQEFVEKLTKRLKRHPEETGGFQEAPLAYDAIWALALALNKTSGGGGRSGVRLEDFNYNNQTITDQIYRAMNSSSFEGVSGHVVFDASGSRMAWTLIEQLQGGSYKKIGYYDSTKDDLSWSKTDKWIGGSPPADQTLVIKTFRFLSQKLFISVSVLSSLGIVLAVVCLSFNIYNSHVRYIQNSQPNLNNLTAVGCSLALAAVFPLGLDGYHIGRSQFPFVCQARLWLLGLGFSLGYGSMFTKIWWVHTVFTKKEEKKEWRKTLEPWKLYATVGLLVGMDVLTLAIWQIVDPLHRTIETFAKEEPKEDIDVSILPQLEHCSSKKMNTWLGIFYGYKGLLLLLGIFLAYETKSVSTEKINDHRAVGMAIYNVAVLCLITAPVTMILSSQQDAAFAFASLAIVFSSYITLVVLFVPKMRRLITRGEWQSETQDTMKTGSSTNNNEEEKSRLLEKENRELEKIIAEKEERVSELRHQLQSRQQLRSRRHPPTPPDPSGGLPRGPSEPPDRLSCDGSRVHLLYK
T3 sequence (O88871 41-940 partner): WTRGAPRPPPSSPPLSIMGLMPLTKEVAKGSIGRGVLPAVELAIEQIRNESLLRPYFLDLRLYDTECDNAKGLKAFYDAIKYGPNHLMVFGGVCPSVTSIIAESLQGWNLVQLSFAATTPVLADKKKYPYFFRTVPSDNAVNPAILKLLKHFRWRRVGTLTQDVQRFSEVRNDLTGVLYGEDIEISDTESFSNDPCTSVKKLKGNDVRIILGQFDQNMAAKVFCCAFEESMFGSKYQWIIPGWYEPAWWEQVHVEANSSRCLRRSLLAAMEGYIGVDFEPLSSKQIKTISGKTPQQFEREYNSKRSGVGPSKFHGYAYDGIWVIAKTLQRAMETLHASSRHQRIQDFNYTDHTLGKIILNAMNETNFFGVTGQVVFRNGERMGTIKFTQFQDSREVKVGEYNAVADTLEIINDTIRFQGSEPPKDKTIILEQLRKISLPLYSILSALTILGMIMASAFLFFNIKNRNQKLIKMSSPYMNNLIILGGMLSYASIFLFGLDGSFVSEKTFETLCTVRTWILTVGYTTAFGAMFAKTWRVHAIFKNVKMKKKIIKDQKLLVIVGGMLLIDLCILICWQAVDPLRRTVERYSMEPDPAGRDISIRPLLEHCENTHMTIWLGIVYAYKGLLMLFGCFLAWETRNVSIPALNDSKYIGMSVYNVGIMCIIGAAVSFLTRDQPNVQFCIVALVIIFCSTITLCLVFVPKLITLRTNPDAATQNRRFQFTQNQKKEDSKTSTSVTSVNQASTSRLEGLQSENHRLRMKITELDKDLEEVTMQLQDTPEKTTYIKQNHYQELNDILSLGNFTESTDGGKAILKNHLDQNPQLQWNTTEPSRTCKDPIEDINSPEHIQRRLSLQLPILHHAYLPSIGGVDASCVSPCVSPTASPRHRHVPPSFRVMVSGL
T2 sequence (P11275 whole entry): as the sequence (P11275 whole entry) above

O=C(O)Cc1ccccc1Nc1c(Cl)cc(O)cc1Cl [4′-hydroxydiclofenac, reference compound]
Ki [1, 7]: 16000 nM

O=C(O)/C=C1\CCCc2ccccc2C1O (stereo not drawn) [B, (E,RS)-6,7,8,9-tetrahydro-5-hydroxy-5H-benzocyclohept-6-ylidene acetic acid, reference compound]
Ki [2]: 440 nM
Ki (CAMK2A): 3710 nM

O=C(O)Cc1cc(O)ccc1Nc1c(Cl)cccc1Cl [C, 2-((2,6-dichlorophenyl)amino)-5-hydroxyphenylacetic acid]
inhibition of 3H-GABA binding to GABAB receptor (GABAB receptor; at a concentration of 1 mM): limited inhibition

O=C(O)/C=C1\CCCc2cc(-c3ccccc3)ccc2C1O (stereo not drawn) [Compound 2, (E)-2-(5-hydroxy-2-phenyl-5,7,8,9-tetrahydro-6H-benzo[7]annulen-6-ylidene)acetic acid]
decrease of infarct size vs saline [3, 8]: 39%
infarct size [3, 8]: 3.4 mm^3
decrease of infarct size vs saline ([3]; 175 mg/kg i.p. 3 or 6 hrs after injury): 38-46%
infarct size ([3]; 175 mg/kg i.p. 3 hrs after injury): 3.44 mm^3
infarct size ([3]; 175 mg/kg i.p. 6 hrs after injury): 2.98 mm^3
motor performance in both asymmetry tests ([4]; 50 mg/kg 3 hrs after injury): significantly improved
number of foot faults (grid-walking) ([4]; 175 mg/kg, 6 hr group): significantly reduced
time spent on affected paw (cylinder task) ([4]; 175 mg/kg, both 3 and 6 hrs): significantly reduced

O=C(O)/C=C1\CCCc2cc(/C=C/c3ccccc3)ccc2C1O (stereo not drawn) [Compound 3, (E)-2-(5-hydroxy-2-((E)-styryl)-5,7,8,9-tetrahydro-6H-benzo[7]annulen-6-ylidene)acetic acid]
Ki [2]: 30 nM
Ki ([1]; pH 7.4, read-out: Ki, 3H-A binding assay): 87 nM
Ki ([1]; read-out: Ki, inhibition of 3H-A binding, pH 6): 50 nM

O=C(O)/C=C1\CCCc2cc(Cl)ccc2C1O (stereo not drawn) [Compound 4, (E)-2-(2-chloro-5-hydroxy-5,7,8,9-tetrahydro-6H-benzo[7]annulen-6-ylidene)acetic acid]
Ki [2, 9]: 52 nM

O=C(O)/C=C1\CCCc2cc(I)ccc2C1O (stereo not drawn) [Compound 5, (E)-2-(2-iodo-5-hydroxy-5,7,8,9-tetrahydro-6H-benzo[7]annulen-6-ylidene)acetic acid]
Ki [2, 9]: 53 nM

O=C(O)/C=C1\CCCc2cc(F)ccc2C1O (stereo not drawn) [Compound 6, (E)-2-(2-fluoro-5-hydroxy-5,7,8,9-tetrahydro-6H-benzo[7]annulen-6-ylidene)acetic acid]
Ki [2]: 108 nM

Cc1ccc2c(c1)CCC/C(=C\C(=O)O)C2O (stereo not drawn) [Compound 7, (E)-2-(2-methyl-5-hydroxy-5,7,8,9-tetrahydro-6H-benzo[7]annulen-6-ylidene)acetic acid]
Ki [2]: 325 nM

O=C(O)/C=C1\CCCc2c(Br)cccc2C1O (stereo not drawn) [Compound 8, (E)-2-(1-bromo-5-hydroxy-5,7,8,9-tetrahydro-6H-benzo[7]annulen-6-ylidene)acetic acid]
Ki [2]: 225 nM

O=C(O)/C=C1\CCCc2c(-c3ccccc3)cccc2C1O (stereo not drawn) [Compound 9, (E)-2-(1-phenyl-5-hydroxy-5,7,8,9-tetrahydro-6H-benzo[7]annulen-6-ylidene)acetic acid]
Ki [2, 9]: 382 nM

O=C(O)/C=C1\CCCc2ccc(Br)cc2C1O (stereo not drawn) [Compound 10, (E)-2-(3-bromo-5-hydroxy-5,7,8,9-tetrahydro-6H-benzo[7]annulen-6-ylidene)acetic acid]
Ki [2, 9]: 9690 nM

O=C1CCCO1 [GBL, γ-butyrolactone]
effect on body temperature (hypothermia) [5]: strong decreased in body temperature
cerebral metabolic rate of glucose, hippocampus ([6]; saline 9.74): 6.45 nCi/ROI/min
cerebral metabolic rate of glucose, frontal cortex ([6]; saline 10.46): 6.78 nCi/ROI/min

O=C(O)CCCO [GHB, γ-hydroxybutyric acid]
inhibition of 3H-GABA binding to GABAB receptor (GABAB receptor; at both 0.1 mM and 1 mM): could inhibit

O=C(O)Cc1ccccc1Nc1c(Cl)cccc1Cl [diclofenac, reference compound]
Ki [1, 7]: 4700 nM
